# Key:
# [1] = tested on: KCHSC; test: Post-emergence herbicidal effect, greenhouse pot test; format: in vivo
# Outline: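 Visual rating of activity against untreated plants (100% = plants died, 0% = no effect), done about 3 weeks after treatment. Compounds applied at 20–320 g/ha as aqueous spray (600 l/ha, 0.5% additive) from WP or EC formulations onto one-leaf-stage plants grown in sandy loam under greenhouse conditions.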
# [2] = tested on: AVEFA; test: as above; format: in vivo, Avena fatua; settings: visual rating about 3 weeks after treatment
# Outline: (§1)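 Visual % activity scored roughly 3 weeks post-spray against untreated plants, where 100% means death and 0% equals control. Plants were treated at the one-leaf stage, 2 to 3 weeks after sowing in sandy loam, at 20 to 320 g/ha.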
# [3] = tested on: ALOMY; test: as above; format: in vivo, Alopecurus myosuroides; settings: visual rating about 3 weeks after treatment; for pest or weed control at 320 g/ha / Post-emergence effect against ALOMY: 320 g/ha
# Outline: as §1
# [4] = tested on: LOLRI; test: as above; format: in vivo, Lolium rigidum; settings: for pest or weed control at 320 g/ha: Lolium rigidum, 504 h, read-out: Post-emergence effect against LOLRI in %
# Outline: as §1
# [5] = tested on: ABUTH; test: as above; format: in vivo, Abutilon theophrasti; settings: visual rating about 3 weeks after treatment; for pest or weed control at 80 g/ha / pest or weed control at 320 g/ha: Abutilon theophrasti, 504 h, read-out: Post-emergence effect against ABUTH
# Outline: as §1
# [6] = tested on: SETVI; test: as above; format: in vivo, Setaria viridis; settings: for pest or weed control at 320 g/ha / Post-emergence effect against SETVI in %: 320 g/ha
# Outline: as §1
# [7] = tested on: MATIN; test: as above; format: in vivo, Tripleurospermum inodorum
# Outline: as §1
# [8] = tested on: DIGSA; test: as above; format: in vivo, Digitaria sanguinalis; settings: visual rating about 3 weeks after treatment; for pest or weed control at 320 g/ha / Post-emergence effect against DIGSA: 320 g/ha
# Outline: as §1
# [9] = tested on: AMARE; test: as above; format: in vivo, Amaranthus retroflexus; settings: Amaranthus retroflexus, 504 h, visual rating about 3 weeks after treatment, read-out: Post-emergence effect against AMARE
# Outline: as §1
# [10] = tested on: ECHCG; test: as above; format: in vivo, Echinochloa crus-galli; settings: for pest or weed control at 80 g/ha / pest or weed control at 320 g/ha: read-out: Post-emergence effect against ECHCG in %
# Outline: as §1
# [11] = tested on: VERPE; test: as above; format: in vivo, Veronica persica; settings: for pest or weed control at 80 g/ha / pest or weed control at 320 g/ha: Veronica persica, 504 h, read-out: Post-emergence effect against VERPE in %; for pest or weed control at 320 g/ha / Post-emergence effect against VERPE in %: 320 g/ha
# Outline: as §1
# [12] = tested on: PHBPU; test: as above; format: in vivo, Ipomoea purpurea; settings: for pest or weed control at 20 g/ha / pest or weed control at 80 g/ha / pest or weed control at 320 g/ha: Ipomoea purpurea, 504 h, read-out: Post-emergence effect against PHBPU in %
# Outline: as §1
# [13] = tested on: POLCO; test: as above; format: in vivo, Fallopia convolvulus
# Outline: as §1
# [14] = tested on: ZEAMX; test: Post-emergence herbicidal effect and crop plant compatibility, greenhouse pot test; format: in vivo, Zea mays; settings: one-leaf stage, rated visually after about 3 weeks vs untreated controls
# Outline: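 Greenhouse pot plants in sandy loam receive a one-leaf-stage spray at 20 to 320 g/ha. Activity is assessed visually around 3 weeks afterwards on a 0–100% scale, where 100% means the plants have died.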
# [15] = tested on: VIOTR; test: Post-emergence herbicidal effect, greenhouse pot test; format: in vivo, Viola tricolor
# Outline: as §1
# [16] = 504 h, 80 g/ha, read-out: Post-emergence effect against KCHSC in %
# [17] = 504 h, 320 g/ha, read-out: Post-emergence effect against KCHSC in %
# [18] = Avena fatua, 504 h, 320 g/ha, read-out: Post-emergence effect against AVEFA
# [19] = Alopecurus myosuroides, 504 h, read-out: Post-emergence effect against ALOMY
# [20] = Setaria viridis, 504 h, read-out: Post-emergence effect against SETVI in %
# [21] = Digitaria sanguinalis, 504 h, read-out: Post-emergence effect against DIGSA
# [22] = Echinochloa crus-galli, 504 h, 80 g/ha
# [23] = Echinochloa crus-galli, 504 h, 320 g/ha
# [24] = Fallopia convolvulus, 504 h, 320 g/ha, read-out: Post-emergence effect against POLCO in %
smiles,measurement,setting,value
"CCOC(=O)C(OCC)Oc1nn(-c2ccccc2F)c(-c2ccc(F)nc2)c1Br (single isomer, unassigned) [Example I-66, Ethyl (2R*)-{[4-bromo-1-(2-fluorophenyl)-5-(6-fluoropyridin-3-yl)-1H-pyrazol-3-yl]oxy}(ethoxy)acetate]",pest or weed control at 80 g/ha,[1]; [16],80%
same,pest or weed control at 320 g/ha,[1]; [17],90%
same,pest or weed control at 320 g/ha,[2]; [18],80%
same,pest or weed control at 320 g/ha,[3]; [19],90%
same,pest or weed control at 320 g/ha,[4]; 320 g/ha,90%
same,pest or weed control at 80 g/ha,[5]; 80 g/ha,80%
same,pest or weed control at 320 g/ha,[5]; 320 g/ha,90%
same,pest or weed control at 320 g/ha,[6]; [20],90%
same,pest or weed control at 80 g/ha,"[7]; Tripleurospermum inodorum, 504 h, 80 g/ha, read-out: Post-emergence effect against MATIN in %",80%
same,pest or weed control at 320 g/ha,"[7]; Tripleurospermum inodorum, 504 h, 320 g/ha, read-out: Post-emergence effect against MATIN in %",90%
same,pest or weed control at 320 g/ha,[8]; [21],90%
same,pest or weed control at 80 g/ha,[9],80%
same,pest or weed control at 320 g/ha,[9],80%
same,pest or weed control at 80 g/ha,[10]; [22],90%
same,pest or weed control at 320 g/ha,[10]; [23],90%
same,pest or weed control at 80 g/ha,[11],80%
same,pest or weed control at 320 g/ha,[11],90%
same,pest or weed control at 20 g/ha,[12],80%
same,pest or weed control at 80 g/ha,[12]; 80 g/ha,80%
same,pest or weed control at 320 g/ha,[12]; 320 g/ha,90%
same,pest or weed control at 320 g/ha,[13]; [24],80%
"COC(=O)CCOC(=O)C(OC)Oc1nn(-c2ncccc2F)c(-c2cncc(F)c2)c1C1CC1 (single isomer, unassigned) [Example I-77]",Post-emergence effect against KCHSC in %,[1]; 20 g/ha,80%
same,Post-emergence effect against KCHSC in %,[1]; 80 g/ha,90%
same,Post-emergence effect against KCHSC in %,[1]; 320 g/ha,90%
same,Post-emergence effect against AVEFA,[2]; 80 g/ha,90%
same,Post-emergence effect against AVEFA,[2]; 320 g/ha,90%
same,Post-emergence effect against ALOMY,[3],90%
same,Post-emergence effect against LOLRI in %,[4]; 80 g/ha,90%
same,Post-emergence effect against LOLRI in %,[4]; 320 g/ha,90%
same,Post-emergence effect against ABUTH,[5]; 80 g/ha,80%
same,Post-emergence effect against ABUTH,[5]; 320 g/ha,80%
same,Post-emergence effect at 20 g/ha against ZEAMX in %,[14],0%
same,Post-emergence effect at 80 g/ha against ZEAMX in %,[14],0%
same,Post-emergence effect against SETVI in %,[6],90%
same,Post-emergence effect against MATIN in %,[7]; 80 g/ha,80%
same,Post-emergence effect against MATIN in %,[7]; 320 g/ha,80%
same,Post-emergence effect against VIOTR in %,[15]; 80 g/ha,90%
same,Post-emergence effect against VIOTR in %,[15]; 320 g/ha,90%
same,Post-emergence effect against DIGSA,[8],90%
same,Post-emergence effect against ECHCG in %,[10]; 80 g/ha,90%
same,Post-emergence effect against ECHCG in %,[10]; 320 g/ha,90%
same,Post-emergence effect against VERPE in %,[11],90%
same,Post-emergence effect against PHBPU in %,[12]; 80 g/ha,90%
same,Post-emergence effect against PHBPU in %,[12]; 320 g/ha,90%
same,Post-emergence effect against POLCO in %,[13]; 80 g/ha,90%
same,Post-emergence effect against POLCO in %,[13]; 320 g/ha,90%
COC(=O)C(OC)Oc1nn(-c2ncccc2F)c(-c2cncc(F)c2)c1I (stereo not drawn) [Example I-72],pest or weed control at 20 g/ha,"[1]; 504 h, 20 g/ha, read-out: Post-emergence effect against KCHSC in %",90%
same,pest or weed control at 80 g/ha,[1]; [16],90%
same,pest or weed control at 320 g/ha,[1]; [17],90%
same,pest or weed control at 80 g/ha,"[2]; Avena fatua, 504 h, 80 g/ha, read-out: Post-emergence effect against AVEFA",90%
same,pest or weed control at 320 g/ha,[2]; [18],90%
same,pest or weed control at 320 g/ha,[3]; [19],90%
same,pest or weed control at 320 g/ha,[4]; 320 g/ha,90%
same,pest or weed control at 80 g/ha,[5]; 80 g/ha,80%
same,pest or weed control at 320 g/ha,[5]; 320 g/ha,90%
same,pest or weed control at 20 g/ha,"[6]; Setaria viridis, 504 h, 20 g/ha, read-out: Post-emergence effect against SETVI in %",90%
same,pest or weed control at 80 g/ha,"[6]; Setaria viridis, 504 h, 80 g/ha, read-out: Post-emergence effect against SETVI in %",90%
same,pest or weed control at 320 g/ha,[6]; [20],90%
same,pest or weed control at 20 g/ha,"[15]; Viola tricolor, 504 h, 20 g/ha, read-out: Post-emergence effect against VIOTR in %",90%
same,pest or weed control at 80 g/ha,"[15]; Viola tricolor, 504 h, 80 g/ha, read-out: Post-emergence effect against VIOTR in %",90%
same,pest or weed control at 320 g/ha,"[15]; Viola tricolor, 504 h, 320 g/ha, read-out: Post-emergence effect against VIOTR in %",90%
same,pest or weed control at 80 g/ha,"[8]; Digitaria sanguinalis, 504 h, 80 g/ha, read-out: Post-emergence effect against DIGSA",90%
same,pest or weed control at 320 g/ha,[8]; [21],90%
same,pest or weed control at 20 g/ha,[9]; 20 g/ha,80%
same,pest or weed control at 80 g/ha,[9],80%
same,pest or weed control at 320 g/ha,[9],80%
same,pest or weed control at 20 g/ha,"[10]; Echinochloa crus-galli, 504 h, 20 g/ha, visual rating about 3 weeks after treatment, read-out: Post-emergence effect against ECHCG",90%
same,pest or weed control at 80 g/ha,[10]; [22],90%
same,pest or weed control at 320 g/ha,[10]; [23],90%
same,pest or weed control at 320 g/ha,[11],90%
same,pest or weed control at 20 g/ha,[12],80%
same,pest or weed control at 80 g/ha,[12]; 80 g/ha,90%
same,pest or weed control at 320 g/ha,[12]; 320 g/ha,90%
same,pest or weed control at 20 g/ha,"[13]; Fallopia convolvulus, 504 h, 20 g/ha, read-out: Post-emergence effect against POLCO in %",80%
same,pest or weed control at 80 g/ha,"[13]; Fallopia convolvulus, 504 h, 80 g/ha, read-out: Post-emergence effect against POLCO in %",80%
same,pest or weed control at 320 g/ha,[13]; [24],90%
COC(=O)C(OC)Oc1nn(-c2ncccc2F)c(-c2ccc(F)nc2)c1C1CC1 (stereo not drawn) [Example I-108],Post-emergence effect against KCHSC in %,[1]; 320 g/ha,90%
same,pest or weed control at 80 g/ha,[1]; [16],90%
same,Post-emergence effect against AVEFA,[2]; 80 g/ha,90%
same,Post-emergence effect against AVEFA,[2]; 320 g/ha,90%
same,Post-emergence effect against ALOMY,[3],100%
same,pest or weed control at 80 g/ha,"[3]; Alopecurus myosuroides, 504 h, 80 g/ha, read-out: Post-emergence effect against ALOMY",90%
same,Post-emergence effect against LOLRI in %,[4]; 320 g/ha,90%
same,Post-emergence effect against ABUTH,[5]; 80 g/ha,80%
same,Post-emergence effect against ABUTH,[5]; 320 g/ha,90%
same,Post-emergence effect at 20 g/ha against ZEAMX in %,[14],0%
same,Post-emergence effect at 80 g/ha against ZEAMX in %,[14],0%
same,plant injury at 320 g/ha,"[14]; Zea mays, 504 h, 320 g/ha, read-out: Post-emergence effect at 320 g/ha against ZEAMX in %",0%
same,Post-emergence effect against SETVI in %,[6],90%
same,Post-emergence effect against VIOTR in %,[15]; 80 g/ha,90%
same,Post-emergence effect against VIOTR in %,[15]; 320 g/ha,90%
same,Post-emergence effect against DIGSA,[8],90%
same,Post-emergence effect against ECHCG in %,[10]; 80 g/ha,90%
same,Post-emergence effect against ECHCG in %,[10]; 320 g/ha,90%
same,Post-emergence effect against VERPE in %,[11],80%
same,pest or weed control at 80 g/ha,[11],80%
same,Post-emergence effect against PHBPU in %,[12]; 80 g/ha,80%
same,Post-emergence effect against PHBPU in %,[12]; 320 g/ha,90%
same,Post-emergence effect against POLCO in %,[13]; 320 g/ha,80%

# Source: patent US20240391862A1, “(1,4,5-TRISUBSTITUTED-1H-PYRAZOL-3-YL)OXY-2-ALKOXY ALKYL ACIDS AND THEIR DERIVATIVES, THEIR SALTS AND THEIR USE AS HERBICIDAL AGENTS” (Bayer AKtiengesellschaft, priority 2021, published 2024)
